Measured values as given in ChEMBL document CHEMBL1154209, “Triple recognition of B-DNA” (Bioorg Med Chem Lett, 2009).
Calls of active or inactive are those of the source. The calls are words filed in the database; no cut-off is given here.

Legend:
Assay type in all cases: nucleic-acid assay
[1] = tested on: Nucleic Acid; experiment: Binding affinity to duplex DNA polydA:polydT assessed as increase of CD signal at 360nm and at 200 uM compound concentration
[2] = tested on: Nucleic Acid; experiment: Binding affinity to duplex DNA dA22.dT22 assessed as change in melting temperature at 3 uM by UV analysis at 260 nm
[3] = tested on: Nucleic Acid; experiment: Binding affinity to duplex DNA polydA:polydT assessed as decrease in viscosity at 200 uM

| Compound | Activity [1] | ΔTm [2] | Activity [3] |
| --- | --- | --- | --- |
| CN1CCN(c2ccc3[nH]c(-c4ccc5[nH]c(-c6ccc(OCCOCCOCCOCCOCCOCCNC(=S)NCCSCC[C@H]7O[C@@H](O[C@H]8[C@H](O)[C@@H](N)C[C@@H](N)[C@@H]8O[C@H]8O[C@H](CN)[C@@H](O)[C@H](O)[C@H]8N)[C@H](O)[C@@H]7O[C@@H]7O[C@H](CN)[C@H](O)[C@@H](O)[C@@H]7N)cc6)nc5c4)nc3c2)CC1 | Active | 24 °C | Active |
| NC[C@H]1O[C@@H](O[C@H]2[C@@H](O)[C@H](O[C@H]3[C@H](O)[C@@H](N)C[C@@H](N)[C@@H]3O[C@H]3O[C@H](CN)[C@@H](O)[C@H](O)[C@H]3N)O[C@@H]2CCSCCNC(=S)NCCOCCOCCNC(=O)CCCc2ccc3ccc4cccc5ccc2c3c45)[C@@H](N)[C@H](O)[C@H]1O | – | 5 °C | – |
| CN1CCN(c2ccc3[nH]c(-c4ccc5[nH]c(-c6ccc(OCCOCCOCCN(CCOCCOCCN)C(=O)CCCc7ccc8ccc9cccc%10ccc7c8c9%10)cc6)nc5c4)nc3c2)CC1 | – | 16 °C | – |
| Nc1ccc2ccc3cccc4ccc1c2c34 | – | 2 °C | – |
| NC[C@@H]1O[C@H](O[C@H]2[C@@H](O)[C@H](O[C@@H]3[C@@H](O)[C@H](N)C[C@H](N)[C@H]3O[C@H]3O[C@H](CN)[C@@H](O)[C@H](O)[C@H]3N)O[C@@H]2CO)[C@H](N)[C@@H](O)[C@@H]1O | – | 0 °C | – |
| CN1CCN(c2ccc3[nH]c(-c4ccc5[nH]c(-c6ccc(OCCOCCOCCN(CCOCCOCCNC(=S)NCCSCC[C@H]7O[C@@H](O[C@H]8[C@H](O)[C@@H](N)C[C@@H](N)[C@@H]8O[C@H]8O[C@H](CN)[C@@H](O)[C@H](O)[C@H]8N)[C@H](O)[C@@H]7O[C@@H]7O[C@H](CN)[C@H](O)[C@@H](O)[C@@H]7N)C(=O)CCCc7ccc8ccc9cccc%10ccc7c8c9%10)cc6)nc5c4)nc3c2)CC1 | Active | 35 °C | Active |
| CN1CCN(c2ccc3[nH]c(-c4ccc5[nH]c(-c6ccc(O)cc6)nc5c4)nc3c2)CC1 | – | 22 °C | – |
